Literature values in PubChem BioAssay AID1259409 (Chemical Carcinogenesis Research Information System (CCRIS), 2018).

Test system: rodent chemically induced tumor inhibition, incidence and multiplicity
Assay: CCRIS tumor inhibitor studies
Details: Route [Inhibitor]: ORAL, Species: RAT

## C=CC1=C(C)C2=CC3=NC(=C(CC(=O)O)C4=NC(=C(C)C4=C(O)O)C=c4[nH]c(c(C)c4CC)=CC1=N2)C(CCC(=O)O)C3C (stereo not given)
Carcinogen: 1,2-DIMETHYLHYDRAZINE [540-73-8], Dose [Inhibitor]: 0, 0.001% (W/V BASED ON TOTAL CHLORINS) IN DRINKING WATER BEGINNING 1 WK POST CARCINOGEN TREATMENT FOR THE DURATION STUD, Strain/Sex: F344/MALE, Target Tissue: Type of Lesion: COLON: TUMOR, Dose [Carcinogen]: 20 MG/KG FOR FIRST 5 WK (STUDY DURATION: 52 WK), Promoter: NONE
  tumour outcome (control, treated, inhibition, significance): 20/23 (87%), 18/20 (90%), -3.4%, not significant
Carcinogen: 1,2-DIMETHYLHYDRAZINE [540-73-8], Dose [Inhibitor]: 0, 0.001% (W/V BASED ON TOTAL CHLORINS) IN DRINKING WATER BEGINNING 1 WK POST CARCINOGEN TREATMENT FOR THE DURATION STUD, Strain/Sex: F344/MALE, Target Tissue: Type of Lesion: SMALL INTESTINE: TUMOR, Dose [Carcinogen]: 20 MG/KG BW/WK FOR FIRST 5 WK (STUDY DURATION: 52 WK), Promoter: NONE
  tumour outcome (control, treated, inhibition, significance): 12/23 (52%), 6/20 (30%), 42%, not significant
Carcinogen: 1,2-DIMETHYLHYDRAZINE [540-73-8], Dose [Inhibitor]: 0, 0.01% (W/V BASED ON TOTAL CHLORINS) IN DRINKING WATER BEGINNING 1 WK POST CARCINOGEN TREATMENT FOR THE DURATION STUDY, Strain/Sex: F344/MALE, Target Tissue: Type of Lesion: SMALL INTESTINE: TUMOR, Dose [Carcinogen]: 20 MG/KG BW/WK FOR FIRST 5 WK (STUDY DURATION: 52 WK), Promoter: NONE
  tumour outcome (control, treated, inhibition, significance): 12/23 (52%), 11/20 (55%), -6%, not significant
Carcinogen: 1,2-DIMETHYLHYDRAZINE [540-73-8], Dose [Inhibitor]: 0, 0.1% (W/V BASED ON TOTAL CHLORINS) IN DRINKING WATER BEGINNING 1 WK POST CARCINOGEN TREATMENT FOR THE DURATION STUDY, Strain/Sex: F344/MALE, Target Tissue: Type of Lesion: SMALL INTESTINE: TUMOR, Dose [Carcinogen]: 20 MG/KG BW/WK FOR FIRST 5 WK (STUDY DURATION: 52 WK), Promoter: NONE
  tumour outcome (control, treated, inhibition, significance): 12/23 (52%), 5/20 (25%), 52%, not significant
Carcinogen: 1,2-DIMETHYLHYDRAZINE [540-73-8], Strain/Sex: F344/MALE, Target Tissue: Type of Lesion: COLON: TUMOR, Dose [Carcinogen]: 20 MG/KG FOR FIRST 5 WK (STUDY DURATION: 52 WK), Promoter: NONE
  tumour outcome (control, treated, inhibition, significance): 20/23 (87%), 20/20 (100%), -15%, not significant
Carcinogen: 2-AMINO-1-METHYL-6-PHENYL-1H-IMIDAZO[4,5-B]PYRID INE, 105650-23-5, Dose [Inhibitor]: 0, 1% IN THE DIET FOR 52 WK (STUDY DURATION: 52 WK), Strain/Sex: F344/FEMALE, Target Tissue: Type of Lesion: MAMMARY GLAND: ADENOCARCINOMA, Dose [Carcinogen]: 0.02% IN THE DIET FOR 52 WK, Promoter: NONE USED
  tumour outcome (control, treated, inhibition, significance): 8/20 (40%), 3/20 (15%), 63%, not significant
Carcinogen: 2-AMINO-1-METHYL-6-PHENYL-1H-IMIDAZO[4,5-B]PYRID INE, 105650-23-5, Dose [Inhibitor]: 0, 1% IN THE DIET FOR 52 WK (STUDY DURATION: 52 WK), Strain/Sex: F344/FEMALE, Target Tissue: Type of Lesion: MAMMARY GLAND: FIBROADENOMA, Dose [Carcinogen]: 0.02% IN THE DIET FOR 52 WK, Promoter: NONE USED
  tumour outcome (control, treated, inhibition, significance): 2/20 (10%), 0/20 (0%), 100%, not significant
Carcinogen: 2-AMINO-3-METHYLIMIDAZO[4,5-F]QUINOLINE [76180-96-6], Dose [Inhibitor]: 0, 0.001% (W/V BASED ON TOTAL CHLORINS) IN DRINKING WATER BEGINNING 1 WK POST CARCINOGEN TREATMENT FOR THE DURATION STUD, Strain/Sex: F344/MALE, Target Tissue: Type of Lesion: COLON: TUMOR, Dose [Carcinogen]: 0.03% IN DIET FOR FIRST 5 WK (STUDY DURATION: 52 WK), Promoter: NONE
  tumour outcome (control, treated, inhibition, significance): 2/22 (9%), 2/20 (10%), -11%, not significant
Carcinogen: 2-AMINO-3-METHYLIMIDAZO[4,5-F]QUINOLINE [76180-96-6], Dose [Inhibitor]: 0, 0.001% (W/V BASED ON TOTAL CHLORINS) IN DRINKING WATER BEGINNING 1 WK POST CARCINOGEN TREATMENT FOR THE DURATION STUD, Strain/Sex: F344/MALE, Target Tissue: Type of Lesion: LIVER: TUMOR, Dose [Carcinogen]: 0.03% IN DIET FOR FIRST 5 WK (STUDY DURATION: 52 WK), Promoter: NONE
  tumour outcome (control, treated, inhibition, significance): 16/22 (73%), 12/20 (60%), 18%, not significant
Carcinogen: 2-AMINO-3-METHYLIMIDAZO[4,5-F]QUINOLINE [76180-96-6], Dose [Inhibitor]: 0, 0.001% (W/V BASED ON TOTAL CHLORINS) IN DRINKING WATER BEGINNING 1 WK POST CARCINOGEN TREATMENT FOR THE DURATION STUD, Strain/Sex: F344/MALE, Target Tissue: Type of Lesion: SKIN: TUMOR, Dose [Carcinogen]: 0.03% IN DIET FOR FIRST 5 WK (STUDY DURATION: 52 WK), Promoter: NONE
  tumour outcome (control, treated, inhibition, significance): 7/22 (32%), 5/20 (25%), 22%, not significant
Carcinogen: 2-AMINO-3-METHYLIMIDAZO[4,5-F]QUINOLINE [76180-96-6], Dose [Inhibitor]: 0, 0.001% (W/V BASED ON TOTAL CHLORINS) IN DRINKING WATER BEGINNING 1 WK POST CARCINOGEN TREATMENT FOR THE DURATION STUD, Strain/Sex: F344/MALE, Target Tissue: Type of Lesion: SMALL INTESTINE: TUMOR, Dose [Carcinogen]: 0.03% IN DIET FOR FIRST 5 WK (STUDY DURATION: 52 WK), Promoter: NONE
  outcome: 0/22 (0%), 1/20 (5%), -%, not significant
Carcinogen: 2-AMINO-3-METHYLIMIDAZO[4,5-F]QUINOLINE [76180-96-6], Dose [Inhibitor]: 0, 0.001% (W/V BASED ON TOTAL CHLORINS) IN DRINKING WATER BEGINNING 1 WK POST CARCINOGEN TREATMENT FOR THE DURATION STUD, Strain/Sex: F344/MALE, Target Tissue: Type of Lesion: ZYMBAL'S GLAND: TUMOR, Dose [Carcinogen]: 0.03% IN DIET FOR FIRST 5 WK (STUDY DURATION: 52 WK), Promoter: NONE
  tumour outcome (control, treated, inhibition, significance): 5/22 (23%), 3/20 (15%), 35%, not significant
Carcinogen: 2-AMINO-3-METHYLIMIDAZO[4,5-F]QUINOLINE [76180-96-6], Dose [Inhibitor]: 0, 0.01% (W/V BASED ON TOTAL CHLORINS) IN DRINKING WATER BEGINNING 1 WK POST CARCINOGEN TREATMENT FOR THE DURATION STUDY, Strain/Sex: F344/MALE, Target Tissue: Type of Lesion: COLON: TUMOR, Dose [Carcinogen]: 0.03% IN DIET FOR FIRST 5 WK (STUDY DURATION: 52 WK), Promoter: NONE
  tumour outcome (control, treated, inhibition, significance): 2/22 (9%), 2/20 (10%), -11%, not significant
Carcinogen: 2-AMINO-3-METHYLIMIDAZO[4,5-F]QUINOLINE [76180-96-6], Dose [Inhibitor]: 0, 0.01% (W/V BASED ON TOTAL CHLORINS) IN DRINKING WATER BEGINNING 1 WK POST CARCINOGEN TREATMENT FOR THE DURATION STUDY, Strain/Sex: F344/MALE, Target Tissue: Type of Lesion: LIVER: TUMOR, Dose [Carcinogen]: 0.03% IN DIET FOR FIRST 5 WK (STUDY DURATION: 52 WK), Promoter: NONE
  tumour outcome (control, treated, inhibition, significance): 16/22 (73%), 10/20 (50%), 31.5%, not significant
Carcinogen: 2-AMINO-3-METHYLIMIDAZO[4,5-F]QUINOLINE [76180-96-6], Dose [Inhibitor]: 0, 0.01% (W/V BASED ON TOTAL CHLORINS) IN DRINKING WATER BEGINNING 1 WK POST CARCINOGEN TREATMENT FOR THE DURATION STUDY, Strain/Sex: F344/MALE, Target Tissue: Type of Lesion: SKIN: TUMOR, Dose [Carcinogen]: 0.03% IN DIET FOR FIRST 5 WK (STUDY DURATION: 52 WK), Promoter: NONE
  tumour outcome (control, treated, inhibition, significance): 7/22 (32%), 7/20 (35%), -9%, not significant
